Experimental data from patent publication US20240343732A1, “COMPOUNDS FOR DEGRADATION OF CYCLIN-DEPENDENT KINASE 7(CDK7)” (QURIENT CO., LTD., priority 2021, published 2024).

What was measured:
CDK1 = target: T1, CDK1 (Homo sapiens, UniProt P06493); assay: Binding assay (FRET, LanthaScreen Eu, Tracer236) for CDK1; details: for IC50: read-out: CDK1 IC50 (enzyme binding assay)
T1 construct: His; purchased Invitrogen PR4768C
Experimental: (§1) Inhibition activity of compound to CDK7 kinase was tested in a binding assay which was applied to the FRET (fluorescence resonance energy transfer) principle from the europium (Eu) donor fluorophore to the acceptor fluorophore on the kinase tracer. Test compounds were made to 1.125 mM of compound solution, and then this compound solution 4-fold serial diluted in 8 steps using an automated liquid handler (JANUS™, PerkinElmer). 80 nL/well of each diluted compound solution was added into the 384-well plate (Greiner, Cat #784075) first and 7.5 ul/well of working solution [5 nM of CDK7/CycH/MNAT1 (Invitrogen, Cat #PR6749B), 4 nM of Biotin anti-His Tag Antibody (Invitrogen, Cat #PV6090), and LanthaScreen® Eu-Streptavidin (Invitrogen, Cat #PV6025)] was added. After mixing the solution well, the same volume with the working solution of Tracer236 (Invitrogen, Cat #PV5592) was added into each well in the plate. The plate was incubated for 60 minutes at room temperature and then all the fluorescence were measured using Envision leader (Perkin Elmer, USA) [Laser as excitation light; […] as the first and the second emission filter]. Data was analysed using XL Fit software.
(§2) All of the synthesized compounds were screened in the above-mentioned assay procedure. To identify the inhibition activity of compounds for other CDKs including CDK1 (Invitrogen, Cat #PR4768C), CDK2 (Invitrogen, Cat #PR4448B) and CDK5 (Invitrogen, Cat #PR8543B) were tested using the same protocol under reasonable concentration of Tracer236 and kinases for each assay. The formula for the assay buffer summarized in below table.

CDK2 = target: T2, CDK2 (Homo sapiens, UniProt P24941); assay: Binding assay (FRET, LanthaScreen Eu, Tracer236) for CDK2; details: for IC50: read-out: CDK2 IC50 (enzyme binding assay)
T2 construct: His; purchased Invitrogen PR4448B
Experimental: as §1, §2

CDK5 = target: T3, CDK5 (Homo sapiens, UniProt Q00535); assay: Binding assay (FRET, LanthaScreen Eu, Tracer236) for CDK5; details: for IC50: read-out: CDK5 IC50 (enzyme binding assay)
T3 construct: His; purchased Invitrogen PR8543B
T3 sequence (Q00535 whole entry): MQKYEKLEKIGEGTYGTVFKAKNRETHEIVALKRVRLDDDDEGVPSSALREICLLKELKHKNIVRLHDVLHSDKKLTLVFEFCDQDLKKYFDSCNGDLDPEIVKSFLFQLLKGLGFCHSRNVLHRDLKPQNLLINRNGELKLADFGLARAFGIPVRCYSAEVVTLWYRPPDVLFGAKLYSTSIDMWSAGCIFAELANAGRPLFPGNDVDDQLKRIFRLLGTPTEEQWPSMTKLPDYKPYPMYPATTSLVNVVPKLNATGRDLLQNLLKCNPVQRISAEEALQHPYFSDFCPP
T3 sequence (Q15078 99-307 partner limits assumed): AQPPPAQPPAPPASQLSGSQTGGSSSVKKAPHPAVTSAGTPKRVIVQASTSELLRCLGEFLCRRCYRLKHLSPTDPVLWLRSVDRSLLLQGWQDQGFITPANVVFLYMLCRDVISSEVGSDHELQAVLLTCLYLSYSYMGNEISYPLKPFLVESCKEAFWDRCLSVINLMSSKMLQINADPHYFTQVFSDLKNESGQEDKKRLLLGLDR
Experimental: as §1, §2

CDK7/CycH/MNAT1 = target: T4, CDK7/CycH/MNAT1 (Homo sapiens, UniProt P50613); assay: Binding assay (FRET, LanthaScreen Eu, Tracer236) for CDK7; details: read-out: CDK7 IC50 (enzyme binding assay)
T4 construct: His; purchased Invitrogen PR6749B
T4 sequence (P50613 whole entry): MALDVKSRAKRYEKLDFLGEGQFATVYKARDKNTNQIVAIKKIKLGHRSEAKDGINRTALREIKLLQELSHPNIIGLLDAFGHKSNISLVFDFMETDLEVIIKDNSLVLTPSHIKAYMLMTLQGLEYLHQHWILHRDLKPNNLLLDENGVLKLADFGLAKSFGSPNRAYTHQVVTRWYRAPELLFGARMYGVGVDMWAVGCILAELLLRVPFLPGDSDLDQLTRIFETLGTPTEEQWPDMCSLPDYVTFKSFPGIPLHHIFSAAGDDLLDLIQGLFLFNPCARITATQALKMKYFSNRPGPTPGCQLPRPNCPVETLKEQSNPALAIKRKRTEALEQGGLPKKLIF
T4 sequence (P51946 whole entry partner): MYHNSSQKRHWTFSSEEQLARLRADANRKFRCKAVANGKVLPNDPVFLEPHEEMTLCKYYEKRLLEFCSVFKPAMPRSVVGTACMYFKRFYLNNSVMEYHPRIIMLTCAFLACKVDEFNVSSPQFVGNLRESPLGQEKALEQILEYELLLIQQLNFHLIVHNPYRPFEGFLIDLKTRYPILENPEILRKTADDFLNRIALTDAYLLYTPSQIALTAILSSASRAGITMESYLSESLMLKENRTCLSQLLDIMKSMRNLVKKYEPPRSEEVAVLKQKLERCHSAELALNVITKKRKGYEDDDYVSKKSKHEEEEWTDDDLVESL
T4 sequence (P51948 whole entry partner): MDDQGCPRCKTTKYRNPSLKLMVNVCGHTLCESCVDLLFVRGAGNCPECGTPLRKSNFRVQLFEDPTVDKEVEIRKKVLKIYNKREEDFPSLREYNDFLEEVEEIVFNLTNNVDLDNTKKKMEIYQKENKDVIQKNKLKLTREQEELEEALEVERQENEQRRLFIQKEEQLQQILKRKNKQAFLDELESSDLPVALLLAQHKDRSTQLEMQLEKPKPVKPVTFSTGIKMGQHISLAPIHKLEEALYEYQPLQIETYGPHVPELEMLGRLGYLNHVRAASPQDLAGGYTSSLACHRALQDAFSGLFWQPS
Experimental: as §1, §2

T1 sequence (P06493 whole entry): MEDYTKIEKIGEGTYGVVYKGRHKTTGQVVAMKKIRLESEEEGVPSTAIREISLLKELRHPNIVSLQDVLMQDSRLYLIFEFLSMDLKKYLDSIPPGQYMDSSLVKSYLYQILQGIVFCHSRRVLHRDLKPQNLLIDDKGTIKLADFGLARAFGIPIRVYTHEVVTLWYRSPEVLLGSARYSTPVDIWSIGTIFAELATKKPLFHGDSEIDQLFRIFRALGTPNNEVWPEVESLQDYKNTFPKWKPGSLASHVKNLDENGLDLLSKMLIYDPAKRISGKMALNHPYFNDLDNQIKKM
T1 sequence (P14635 whole entry partner): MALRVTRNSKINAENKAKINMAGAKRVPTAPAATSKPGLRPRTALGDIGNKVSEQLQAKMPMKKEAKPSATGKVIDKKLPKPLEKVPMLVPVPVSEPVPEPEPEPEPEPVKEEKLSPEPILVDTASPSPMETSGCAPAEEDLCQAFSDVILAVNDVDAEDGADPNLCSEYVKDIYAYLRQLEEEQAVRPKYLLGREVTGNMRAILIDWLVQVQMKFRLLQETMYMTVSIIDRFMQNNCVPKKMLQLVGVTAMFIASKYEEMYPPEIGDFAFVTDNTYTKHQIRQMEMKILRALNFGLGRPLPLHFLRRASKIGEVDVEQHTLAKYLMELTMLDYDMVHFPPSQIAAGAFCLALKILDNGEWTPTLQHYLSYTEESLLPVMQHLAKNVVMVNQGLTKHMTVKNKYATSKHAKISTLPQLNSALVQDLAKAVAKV

| CDK1/CDK7: Selectivity of CDK7 inhibition over CDK1 inhibition (CDK1) | IC50 (CDK1) [nM] | CDK2/CDK7: Selectivity of CDK7 inhibition over CDK2 inhibition (CDK2) | IC50 (CDK2) [nM] | CDK5/CDK7: Selectivity of CDK7 inhibition over CDK5 inhibition (CDK5) | IC50 (CDK5) [nM] | IC50 (CDK7/CycH/MNAT1) [nM] | SMILES |
| --- | --- | --- | --- | --- | --- | --- | --- |
| A (A indicates [fold] > 500) | > 1000 | A (A indicates [fold] > 500) | > 1000 | A (A indicates [fold] > 500) | > 1000 | ≤ 100 | CC(C)c1cnn2c(NCc3ccccc3-c3nccc4cc(NC(=O)/C=C/CN(C)CCOCCNC(=O)CNc5cccc6c5C(=O)N(C5CCC(=O)NC5=O)C6=O)ccc34)nc(N3CCC(N)CC3)nc12 (stereo not drawn) [Compound 1] |
| A (A indicates [fold] > 500) | > 1000 | A (A indicates [fold] > 500) | > 1000 | A (A indicates [fold] > 500) | > 1000 | ≤ 100 | CC(C)c1cnn2c(NCc3ccccc3-c3nccc4cc(N)ccc34)nc(O[C@@H]3CCCN(CCOCCOCCOCCNC(=O)CNc4cccc5c4C(=O)N(C4CCC(=O)NC4=O)C5=O)C3)nc12 (stereo partly drawn) [Compound 6] |
| A (A indicates [fold] > 500) | > 1000 | A (A indicates [fold] > 500) | > 1000 | A (A indicates [fold] > 500) | > 1000 | ≤ 100 | CC(C)c1cnn2c(NCc3ccccc3-c3nccc4cc(NC(=O)/C=C/CN(C)CCOCCOCCNC(=O)CNc5cccc6c5C(=O)N(C5CCC(=O)NC5=O)C6=O)ccc34)nc(N3CCC(N)CC3)nc12 (stereo not drawn) [Compound 2] |
| A (A indicates [fold] > 500) | > 1000 | A (A indicates [fold] > 500) | > 1000 | A (A indicates [fold] > 500) | > 1000 | ≤ 100 | CN[C@@H](C)C(=O)N[C@H](C(=O)N1CCC[C@H]1c1nc(C(=O)c2cccc(OCCOCCOCCNc3ccc4c(-c5ccccc5CNc5nc(O[C@@H]6CCCNC6)nc6c(C(C)C)cnn56)nccc4c3)c2)cs1)C1CCCCC1 [Compound 18] |

The remaining lines, values behind:

| SMILES | CDK1/CDK7: Selectivity of CDK7 inhibition over CDK1 inhibition (CDK1) | IC50 (CDK1) [nM] | CDK2/CDK7: Selectivity of CDK7 inhibition over CDK2 inhibition (CDK2) | IC50 (CDK2) [nM] | CDK5/CDK7: Selectivity of CDK7 inhibition over CDK5 inhibition (CDK5) | IC50 (CDK5) [nM] | IC50 (CDK7/CycH/MNAT1) [nM] |
| --- | --- | --- | --- | --- | --- | --- | --- |
| Cc1ncsc1-c1ccc(CNC(=O)[C@@H]2C[C@@H](O)CN2C(=O)[C@@H](NC(=O)C2(F)CC2)C(C)(C)C)c(OCCOCCOCCOCCOCCOCCNc2ccc3c(-c4ccccc4CNc4nc(O[C@@H]5CCCNC5)nc5c(C(C)C)cnn45)nccc3c2)c1 [Compound 23] | A (A indicates [fold] > 500) | > 1000 | A (A indicates [fold] > 500) | > 1000 | A (A indicates [fold] > 500) | > 1000 | ≤ 100 |
| CC(C)c1cnn2c(NCc3ccccc3-c3nccc4cc(NC(=O)/C=C/CN(C)CCOCCOCCOCCNC(=O)CNc5cccc6c5C(=O)N(C5CCC(=O)NC5=O)C6=O)ccc34)nc(N3CCC(N)CC3)nc12 (stereo not drawn) [Compound 3] | A (A indicates [fold] > 500) | > 1000 | A (A indicates [fold] > 500) | > 1000 | A (A indicates [fold] > 500) | > 1000 | ≤ 100 |
| CC(C)c1cnn2c(NCc3ccccc3-c3nccc4cc(N5CCC(CN6CCN(c7cc8c(cc7F)C(=O)N(C7CCC(=O)NC7=O)C8=O)CC6)CC5)ccc34)nc(O[C@@H]3CCCNC3)nc12 (stereo partly drawn) [Compound 36] | B (B indicates 50 < [fold] ≤ 500) | > 1000 | B (B indicates 50 < [fold] ≤ 500) | > 1000 | B (B indicates 50 < [fold] ≤ 500) | > 1000 | ≤ 100 |
| CC(C)c1cnn2c(NCc3ccccc3-c3nccc4cc(N5CCN(CC6CCN(c7cc8c(cc7F)C(=O)N(C7CCC(=O)NC7=O)C8=O)CC6)CC5)ccc34)nc(O[C@@H]3CCCNC3)nc12 (stereo partly drawn) [Compound 35] | B (B indicates 50 < [fold] ≤ 500) | > 1000 | B (B indicates 50 < [fold] ≤ 500) | > 1000 | B (B indicates 50 < [fold] ≤ 500) | > 1000 | 100 to 1000 |
| CC(C)c1cnn2c(NCc3ccccc3-c3nccc4cc(NCCOCCOCCOCCNC(=O)CNc5cccc6c5C(=O)N(C5CCC(=O)NC5=O)C6=O)ccc34)nc(O[C@@H]3CCCNC3)nc12 (stereo partly drawn) [Compound 8] | A (A indicates [fold] > 500) | > 1000 | A (A indicates [fold] > 500) | > 1000 | B (B indicates 50 < [fold] ≤ 500) | > 1000 | ≤ 100 |
| Cc1ncsc1-c1ccc(CNC(=O)[C@@H]2C[C@@H](O)CN2C(=O)[C@@H](NC(=O)C2(F)CC2)C(C)(C)C)c(OCCN2CCC(N3CCC(CNc4ccc5c(-c6ccccc6CNc6nc(N[C@@H]7CCCNC7)nc7c(C(C)C)cnn67)nccc5c4)CC3)CC2)c1 [Compound 29] | B (B indicates 50 < [fold] ≤ 500) | > 1000 | B (B indicates 50 < [fold] ≤ 500) | > 1000 | B (B indicates 50 < [fold] ≤ 500) | > 1000 | ≤ 100 |
| C=C(F)C(=O)Nc1ccc2c(-c3ccccc3CNc3nc(NC[C@H]4CCN(CCOCCOCCNC(=O)CNc5cccc6c5C(=O)N(C5CCC(=O)NC5=O)C6=O)C[C@@H]4O)nc4c(C(C)C)cnn34)nccc2c1 (stereo partly drawn) [Compound 4] | A (A indicates [fold] > 500) | > 1000 | C (C indicates [fold] ≤ 50) | > 1000 | B (B indicates 50 < [fold] ≤ 500) | > 1000 | 100 to 1000 |
| CC(C)c1cnn2c(NCc3ccccc3-c3nccc4cc(N)ccc34)nc(O[C@@H]3CCCN(CCOCCOCCNC(=O)CNc4cccc5c4C(=O)N(C4CCC(=O)NC4=O)C5=O)C3)nc12 (stereo partly drawn) [Compound 5] | A (A indicates [fold] > 500) | > 1000 | A (A indicates [fold] > 500) | > 1000 | A (A indicates [fold] > 500) | > 1000 | ≤ 100 |
